Activity calls are given as the source filed them.
Columns and labels:
Homo sapiens = organism: Homo sapiens; experiment: Inhibition of PRC2 complex of human full-length N-terminal FLAG-tagged EZH2/EED/SUZ12/AEBP2/RbAp48 expressed in baculovirus expression system at <5 uM using histone H3 peptide (21 to 44) as substrate in presence of co-factor SAM by LC-MS analysis
[1] = molecular target: MLL1/ASH2L/RBBP5/WDR5 complex (Homo sapiens) (UniProt P61964+Q03164+Q9UBL3+Q15291); experiment: Inhibition of MLL (MLL/ASH2L/RBBP5/WDR5) (unknown origin) at <5 uM using histone H3 peptide (1 to 21) as substrate in presence of co-factor SAM by LC-MS analysis; assay type: protein-complex assay
[2] = molecular target: Histone-lysine N-methyltransferase SETD2 (Homo sapiens) (UniProt Q9BYW2); experiment: Inhibition of SETD2 (unknown origin) at <5 uM using histone H3 peptide (21 to 44) as substrate in presence of co-factor SAM by LC-MS analysis

Measured: inhibition

Histone-lysine N-methyltransferase SETD2 (Homo sapiens), sequence (Q9BYW2 whole entry): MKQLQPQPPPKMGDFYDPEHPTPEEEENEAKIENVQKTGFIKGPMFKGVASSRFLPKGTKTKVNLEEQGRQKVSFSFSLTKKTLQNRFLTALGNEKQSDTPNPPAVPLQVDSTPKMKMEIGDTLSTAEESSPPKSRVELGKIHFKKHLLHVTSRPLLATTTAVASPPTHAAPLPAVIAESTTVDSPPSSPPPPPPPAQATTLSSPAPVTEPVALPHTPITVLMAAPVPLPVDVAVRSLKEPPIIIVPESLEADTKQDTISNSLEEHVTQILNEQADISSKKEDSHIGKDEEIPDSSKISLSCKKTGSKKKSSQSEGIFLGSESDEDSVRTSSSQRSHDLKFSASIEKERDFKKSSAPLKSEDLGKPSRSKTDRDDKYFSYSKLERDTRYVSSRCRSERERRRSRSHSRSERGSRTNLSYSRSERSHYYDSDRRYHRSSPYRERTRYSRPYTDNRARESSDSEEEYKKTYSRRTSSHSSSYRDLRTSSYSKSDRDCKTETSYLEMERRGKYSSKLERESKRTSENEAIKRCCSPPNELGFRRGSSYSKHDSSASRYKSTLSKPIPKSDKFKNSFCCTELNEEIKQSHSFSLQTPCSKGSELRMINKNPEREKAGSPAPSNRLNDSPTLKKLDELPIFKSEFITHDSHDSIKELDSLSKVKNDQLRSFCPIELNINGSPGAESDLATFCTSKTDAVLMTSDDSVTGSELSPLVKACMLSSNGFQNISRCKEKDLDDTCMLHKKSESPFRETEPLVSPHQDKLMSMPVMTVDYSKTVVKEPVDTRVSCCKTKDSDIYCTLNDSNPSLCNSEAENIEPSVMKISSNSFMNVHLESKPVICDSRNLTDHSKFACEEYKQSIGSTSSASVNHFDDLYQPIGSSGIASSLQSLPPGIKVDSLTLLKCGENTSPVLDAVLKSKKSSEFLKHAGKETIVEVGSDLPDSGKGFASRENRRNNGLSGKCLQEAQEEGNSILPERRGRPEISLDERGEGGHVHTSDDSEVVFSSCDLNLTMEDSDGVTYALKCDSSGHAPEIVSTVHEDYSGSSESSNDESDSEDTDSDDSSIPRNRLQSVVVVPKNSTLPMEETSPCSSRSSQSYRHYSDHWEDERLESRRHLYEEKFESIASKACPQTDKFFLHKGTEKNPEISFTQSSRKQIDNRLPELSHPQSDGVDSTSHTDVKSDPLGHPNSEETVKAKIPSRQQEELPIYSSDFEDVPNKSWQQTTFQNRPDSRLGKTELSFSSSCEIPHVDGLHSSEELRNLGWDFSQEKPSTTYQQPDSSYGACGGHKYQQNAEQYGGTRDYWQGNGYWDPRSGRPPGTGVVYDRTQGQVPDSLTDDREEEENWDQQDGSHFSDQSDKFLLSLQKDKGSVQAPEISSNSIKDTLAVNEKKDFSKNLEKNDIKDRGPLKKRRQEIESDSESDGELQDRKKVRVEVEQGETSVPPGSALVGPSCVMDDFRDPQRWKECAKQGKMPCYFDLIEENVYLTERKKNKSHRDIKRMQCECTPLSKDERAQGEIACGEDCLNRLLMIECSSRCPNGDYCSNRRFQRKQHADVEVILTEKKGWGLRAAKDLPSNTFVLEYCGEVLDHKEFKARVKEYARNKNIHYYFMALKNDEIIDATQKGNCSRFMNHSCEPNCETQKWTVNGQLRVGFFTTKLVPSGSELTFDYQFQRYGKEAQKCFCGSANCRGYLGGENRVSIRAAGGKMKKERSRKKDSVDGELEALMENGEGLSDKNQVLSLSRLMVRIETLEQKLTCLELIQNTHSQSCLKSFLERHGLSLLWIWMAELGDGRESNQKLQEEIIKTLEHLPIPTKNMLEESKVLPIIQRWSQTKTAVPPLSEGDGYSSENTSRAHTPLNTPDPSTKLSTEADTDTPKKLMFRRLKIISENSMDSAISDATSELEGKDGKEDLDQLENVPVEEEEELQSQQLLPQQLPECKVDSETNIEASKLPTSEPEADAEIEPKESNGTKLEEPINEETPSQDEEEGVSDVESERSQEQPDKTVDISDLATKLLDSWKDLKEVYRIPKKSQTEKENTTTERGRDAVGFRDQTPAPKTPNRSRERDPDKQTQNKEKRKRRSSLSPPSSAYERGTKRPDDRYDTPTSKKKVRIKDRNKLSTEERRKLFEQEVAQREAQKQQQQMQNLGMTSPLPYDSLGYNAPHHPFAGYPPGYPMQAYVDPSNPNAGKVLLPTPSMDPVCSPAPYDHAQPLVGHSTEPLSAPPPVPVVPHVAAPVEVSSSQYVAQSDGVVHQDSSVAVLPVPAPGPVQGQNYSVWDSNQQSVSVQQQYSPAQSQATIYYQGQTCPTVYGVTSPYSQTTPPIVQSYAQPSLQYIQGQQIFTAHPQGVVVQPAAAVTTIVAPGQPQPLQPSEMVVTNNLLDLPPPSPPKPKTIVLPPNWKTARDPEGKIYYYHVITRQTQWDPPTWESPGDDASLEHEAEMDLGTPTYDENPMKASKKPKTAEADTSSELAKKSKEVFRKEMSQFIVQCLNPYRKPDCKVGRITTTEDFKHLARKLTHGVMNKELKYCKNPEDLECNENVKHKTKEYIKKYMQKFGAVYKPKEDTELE

COc1nc(Nc2cc(S(C)(=O)=O)ccc2N[C@@H](c2cccc3c2OC(F)(F)O3)c2ncccc2Cl)nc(N2CCNCC2)n1
inactive: all assays above

— ChEMBL document CHEMBL4406923, “New Potent DOT1L Inhibitors for in Vivo Evaluation in Mouse” (ACS Med Chem Lett, 2019)
